Assay: xn = mol fraction of the nth substance listed

Cc1nccnc1C [2,3-dimethylpyrazine] + O=C=O
Fluid (supercritical or subcritical phases), Linear displacement technique
Conditions | mass density [kg/m3]
328.55 K, 14100 kPa, x1 = 0.291 | 857
328.55 K, 15620 kPa, x1 = 0.01 | 757
328.55 K, 16930 kPa, x1 = 0.291 | 859
329.65 K, 6660 kPa, x1 = 0.565 | 912
329.65 K, 8240 kPa, x1 = 0.565 | 914
329.65 K, 14590 kPa, x1 = 0.565 | 919
329.75 K, 12170 kPa, x1 = 0.033 | 656
329.75 K, 12970 kPa, x1 = 0.033 | 684
329.75 K, 14310 kPa, x1 = 0.033 | 713
329.75 K, 16930 kPa, x1 = 0.033 | 765
329.85 K, 12860 kPa, x1 = 0.108 | 845
329.85 K, 14590 kPa, x1 = 0.108 | 855
329.85 K, 19000 kPa, x1 = 0.108 | 879
330.35 K, 11790 kPa, x1 = 0.157 | 902
330.35 K, 14240 kPa, x1 = 0.157 | 919
330.35 K, 17550 kPa, x1 = 0.157 | 937
331.65 K, 11550 kPa, x1 = 0.086 | 645
331.65 K, 12210 kPa, x1 = 0.057 | 762
331.65 K, 12830 kPa, x1 = 0.057 | 785
331.65 K, 14030 kPa, x1 = 0.086 | 676
331.65 K, 15620 kPa, x1 = 0.086 | 689
331.65 K, 19380 kPa, x1 = 0.057 | 886
332.85 K, 12790 kPa, x1 = 0.049 | 767
332.85 K, 14620 kPa, x1 = 0.049 | 811
332.85 K, 15690 kPa, x1 = 0.049 | 834
333.95 K, 5520 kPa, x1 = 0.736 | 855
333.95 K, 12830 kPa, x1 = 0.736 | 858
333.95 K, 19520 kPa, x1 = 0.736 | 858
335.15 K, 12970 kPa, x1 = 0.027 | 605
335.15 K, 13550 kPa, x1 = 0.027 | 633
335.15 K, 14590 kPa, x1 = 0.027 | 668
338.75 K, 11790 kPa, x1 = 0.184 | 860
338.75 K, 14170 kPa, x1 = 0.184 | 874
338.75 K, 16720 kPa, x1 = 0.184 | 886
340.75 K, 12790 kPa, x1 = 0.108 | 786
340.75 K, 14030 kPa, x1 = 0.108 | 810
340.75 K, 17340 kPa, x1 = 0.108 | 837
340.75 K, 20170 kPa, x1 = 0.108 | 858
341.25 K, 10790 kPa, x1 = 0.01 | 327
341.95 K, 8900 kPa, x1 = 0.433 | 918
341.95 K, 12340 kPa, x1 = 0.433 | 926
341.95 K, 17480 kPa, x1 = 0.433 | 934
341.95 K, 23830 kPa, x1 = 0.433 | 945
343.15 K, 13410 kPa, x1 = 0.057 | 679
343.15 K, 14660 kPa, x1 = 0.057 | 719
343.15 K, 16170 kPa, x1 = 0.057 | 750
343.25 K, 14210 kPa, x1 = 0.033 | 585
343.25 K, 14930 kPa, x1 = 0.033 | 615
343.25 K, 16340 kPa, x1 = 0.033 | 657
345.05 K, 14100 kPa, x1 = 0.049 | 698
345.05 K, 15410 kPa, x1 = 0.049 | 745
345.05 K, 17240 kPa, x1 = 0.049 | 791
345.85 K, 15140 kPa, x1 = 0.086 | 626
345.85 K, 15900 kPa, x1 = 0.086 | 638
347.05 K, 11760 kPa, x1 = 0.291 | 853
347.05 K, 14070 kPa, x1 = 0.291 | 855
347.05 K, 18860 kPa, x1 = 0.291 | 857
347.65 K, 8210 kPa, x1 = 0.565 | 895
347.65 K, 11830 kPa, x1 = 0.565 | 901
347.65 K, 18520 kPa, x1 = 0.565 | 907
347.85 K, 12690 kPa, x1 = 0.184 | 828
347.85 K, 13450 kPa, x1 = 0.184 | 837
347.85 K, 15690 kPa, x1 = 0.184 | 853
348.35 K, 9900 kPa, x1 = 0.433 | 906
348.35 K, 15140 kPa, x1 = 0.433 | 917
348.35 K, 23070 kPa, x1 = 0.433 | 931
350.75 K, 14660 kPa, x1 = 0.108 | 747
350.75 K, 15690 kPa, x1 = 0.108 | 766
350.75 K, 17410 kPa, x1 = 0.108 | 790
352.25 K, 14550 kPa, x1 = 0.057 | 618
352.25 K, 16340 kPa, x1 = 0.057 | 678
352.25 K, 18760 kPa, x1 = 0.057 | 731
354.15 K, 16900 kPa, x1 = 0.157 | 847
354.15 K, 19280 kPa, x1 = 0.157 | 865
354.15 K, 25210 kPa, x1 = 0.157 | 904
355.25 K, 14550 kPa, x1 = 0.049 | 608
355.25 K, 15410 kPa, x1 = 0.049 | 652
355.25 K, 17280 kPa, x1 = 0.049 | 702
357.15 K, 13760 kPa, x1 = 0.433 | 897
357.15 K, 17310 kPa, x1 = 0.433 | 905
357.15 K, 21970 kPa, x1 = 0.433 | 914
358.65 K, 12930 kPa, x1 = 0.291 | 848
358.65 K, 15410 kPa, x1 = 0.291 | 852
358.65 K, 20590 kPa, x1 = 0.291 | 855
360.55 K, 6970 kPa, x1 = 0.736 | 846
360.55 K, 11100 kPa, x1 = 0.736 | 850
360.55 K, 17970 kPa, x1 = 0.736 | 853
362.95 K, 16930 kPa, x1 = 0.086 | 561
362.95 K, 17410 kPa, x1 = 0.086 | 574
362.95 K, 19410 kPa, x1 = 0.086 | 604
365.05 K, 16480 kPa, x1 = 0.057 | 573
365.05 K, 18310 kPa, x1 = 0.057 | 636
365.05 K, 20170 kPa, x1 = 0.057 | 679
365.05 K, 23210 kPa, x1 = 0.057 | 725
365.55 K, 19340 kPa, x1 = 0.184 | 818
365.55 K, 24520 kPa, x1 = 0.184 | 848
365.55 K, 45000 kPa, x1 = 0.184 | 900
368.45 K, 17140 kPa, x1 = 0.108 | 690
368.45 K, 19480 kPa, x1 = 0.108 | 731
368.45 K, 25100 kPa, x1 = 0.108 | 791
368.45 K, 34900 kPa, x1 = 0.108 | 848
371.85 K, 15900 kPa, x1 = 0.027 | 402
371.85 K, 17140 kPa, x1 = 0.027 | 432
373.25 K, 16720 kPa, x1 = 0.049 | 558
373.25 K, 17900 kPa, x1 = 0.049 | 605
373.25 K, 20100 kPa, x1 = 0.049 | 667
373.55 K, 9210 kPa, x1 = 0.565 | 867
373.55 K, 12380 kPa, x1 = 0.565 | 873
373.55 K, 18520 kPa, x1 = 0.565 | 883
374.25 K, 17410 kPa, x1 = 0.086 | 507
374.25 K, 18100 kPa, x1 = 0.086 | 521
374.25 K, 18900 kPa, x1 = 0.086 | 540
375.05 K, 18100 kPa, x1 = 0.033 | 466
375.05 K, 19410 kPa, x1 = 0.033 | 499
375.05 K, 20690 kPa, x1 = 0.033 | 526
375.85 K, 20590 kPa, x1 = 0.157 | 805
375.85 K, 23340 kPa, x1 = 0.157 | 829
375.85 K, 26520 kPa, x1 = 0.157 | 856
380.65 K, 12760 kPa, x1 = 0.433 | 852
380.65 K, 16100 kPa, x1 = 0.433 | 861
380.65 K, 21660 kPa, x1 = 0.433 | 876
381.45 K, 15210 kPa, x1 = 0.291 | 831
381.45 K, 15690 kPa, x1 = 0.291 | 830
381.45 K, 21340 kPa, x1 = 0.291 | 841

Liquid, linear displacement
Conditions | mass density [kg/m3]
328.55 K, x1 = 0.291 | 855
329.65 K, x1 = 0.565 | 909
329.75 K, x1 = 0.033 | 560
329.85 K, x1 = 0.108 | 822
330.35 K, x1 = 0.157 | 884
331.65 K, x1 = 0.057 | 719
331.65 K, x1 = 0.086 | 627
332.85 K, x1 = 0.049 | 708
333.95 K, x1 = 0.736 | 854
338.75 K, x1 = 0.184 | 852
340.75 K, x1 = 0.108 | 771
341.95 K, x1 = 0.433 | 915
343.15 K, x1 = 0.057 | 639
345.05 K, x1 = 0.049 | 638
345.85 K, x1 = 0.086 | 579
347.05 K, x1 = 0.291 | 852
347.65 K, x1 = 0.565 | 893
347.85 K, x1 = 0.184 | 826
348.35 K, x1 = 0.433 | 902
350.75 K, x1 = 0.108 | 725
354.15 K, x1 = 0.157 | 814
357.15 K, x1 = 0.433 | 886
358.65 K, x1 = 0.291 | 848
360.55 K, x1 = 0.736 | 845
362.95 K, x1 = 0.086 | 530
365.55 K, x1 = 0.184 | 774
368.45 K, x1 = 0.108 | 663
373.55 K, x1 = 0.565 | 865
374.25 K, x1 = 0.086 | 490
375.85 K, x1 = 0.157 | 764
380.65 K, x1 = 0.433 | 848
381.45 K, x1 = 0.291 | 829

— the NIST ThermoML archive (doi:10.1021/je0601457)
